# Values joined by “and” are separate entries in the source; they are usually repeats but may differ in a detail not shown here. Equal entries are not always repeated. Where two headings read alike, the source gives them in different places. Peptide text beside a SMILES is read from it. * marks the point of attachment. FITC = O=C1OC2(c3ccc(O)cc3Oc3cc(O)ccc32)c2ccc(NC(=S)*)cc21; Ahx = NCCCCCC(=O)O
# What was measured:
# SrcAbl SH3 = target: T1, SrcAbl SH3 (Homo sapiens, UniProt P12931, D120E/E100D/E118N/E96V/R98S/S97A/T101N/T117H/T99G); test: Fluorescence anisotropy binding, SrcAbl SH3 chimera (Src SH3 with Abl RT and nSrc loops); settings: 30 nM fluorescent peptide, running buffer + 0.1 mg/mL BSA + 0.5 mM Thesit, average of triplicate experiments
# T1 construct: His6-SUMO (N, cleaved yes); made in house; host or cells: Escherichia coli BL21 DE3
# AblSrc SH3 = target: T2, AblSrc SH3 (Homo sapiens, UniProt P00519, A74S/D77E/E98D/G76T/H95T/N78T/N96E/S75R/V73E); test: Fluorescence anisotropy binding, AblSrc SH3 chimera (Abl SH3 with Src RT and nSrc loops); settings: 30 nM fluorescent peptide, running buffer + 0.1 mg/mL BSA + 0.5 mM Thesit, average of triplicate experiments, >1,000 = undetectable
# T2 construct: His6-SUMO (N, cleaved yes); made in house; host or cells: Escherichia coli BL21 DE3
# T2 sequence (P00519 61-121 V73E/A74S/S75R/G76T/D77E/N78T/H95T/N96E/E98D limits assumed): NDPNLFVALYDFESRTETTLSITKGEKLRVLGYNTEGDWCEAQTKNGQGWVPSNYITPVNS
# Excerpt: (§1) Therefore, we wanted to engineer chimeric proteins to test if these loops alone could mediate specificity switching. In our chimeras, we swapped both the RT (sequence: ^96ESRTET^101) and nSrc (^117TEGD^120) loops of Src with the RT (^73VASGDN^78) and nSrc (^95HNGE^98) loop sequences of Abl, and vice versa in each SH3 domain. We termed the resulting proteins, SrcAbl and AblSrc, where the subscript indicates the sequence identity of both the RT and nSrc loops.
# (§2) Sequences corresponding to the Abl and Src SH3 (residues 84-145, UniProt ID SRC_HUMAN) domains were used for the wild-type SH3 domains. All proteins were expressed as His6-SUMO fusion proteins using the pET28a (+) plasmid (Genscript). […]
# (§3) Briefly, plasmids were transformed into BL21 DE3 chemically competent Escherichia coli cells. […] SDS-PAGE was used to assess protein purity and the absorbance at λ = 280 nm with the calculated extinction coefficient (s), by Expasy ProtParam, was used to calculate protein concentration ([Wilkins et al., 1999]).
# (§4) Fluorescence anisotropy assays were performed using a BioTek Synergy H1 plate reader, as previously described [([Tahti et al., 2023]; [Gao et al., 2020]; [Wofford et al., 2021]; [Valgardson et al., 2019])]. […] Determined K D values were the average calculated from triplicate experiments ([Cushing et al., 2008]). […]
# C100W Abl SH3 = target: T3, C100W Abl SH3 (Homo sapiens, UniProt P00519, C100W); test: Fluorescence anisotropy binding, C100W Abl SH3; settings: 30 nM fluorescent peptide, running buffer + 0.1 mg/mL BSA + 0.5 mM Thesit, average of triplicate experiments, >1,000 = undetectable
# T3 construct: His6-SUMO (N, cleaved yes); made in house; host or cells: Escherichia coli BL21 DE3
# Excerpt: (§5) Sequences corresponding to the Abl and Src SH3 (residues 84-145, UniProt ID SRC_HUMAN) domains were used for the wild-type SH3 domains. All proteins were expressed as His6-SUMO fusion proteins using the pET28a (+) plasmid (Genscript). Expression and purification protocols were similar to those used previously for other SLiM-binding domains [([Tahti et al., 2023]; [Gao et al., 2020]; [Wofford et al., 2021])]. All sequences used are in the Supporting Information.
# (§6) Briefly, plasmids were transformed into BL21 DE3 chemically competent Escherichia coli cells. Selected colonies were grown in Terrific Broth (TB) at 37°C with shaking at 210 rpm. Once an optical density (OD) of 0.6–0.8 at λ = 600 nm was reached, protein expression was induced by the addition of 0.15 mM isopropyl-β-D-1-thiogalactopyranoside (IPTG) for 16–18 h at 18°C. […] SDS-PAGE was used to assess protein purity and the absorbance at λ = 280 nm with the calculated extinction coefficient (s), by Expasy ProtParam, was used to calculate protein concentration ([Wilkins et al., 1999]).
# as §4
# Abl SH3 [1] = target: T4, Abl SH3 (Homo sapiens, UniProt P00519); test: Fluorescence anisotropy binding, Abl SH3; settings: 30 nM fluorescent peptide, running buffer + 0.1 mg/mL BSA + 0.5 mM Thesit, average of triplicate experiments
# T4 construct: His6-SUMO (N, cleaved yes); made in house; host or cells: Escherichia coli BL21 DE3
# Excerpt: as §5, §6, §4
# W122C SrcAbl SH3 = target: T5, W122C SrcAbl SH3 (Homo sapiens, UniProt P12931, D120E/E100D/E118N/E96V/R98S/S97A/T101N/T117H/T99G/W122C); test: Fluorescence anisotropy binding, W122C SrcAbl SH3; settings: 30 nM fluorescent peptide, running buffer + 0.1 mg/mL BSA + 0.5 mM Thesit, average of triplicate experiments
# T5 construct: His6-SUMO (N, cleaved yes); made in house; host or cells: Escherichia coli BL21 DE3
# Excerpt: as §1, §2, §3, §4
# Fyn SH3 = target: Fyn SH3; design: method as in Pisabarro and Serrano, 1996; Pisabarro et al., 1998; settings: Fyn SH3, previously published; ref Pisabarro and Serrano, 1996; Pisabarro et al., 1998; read-out: affinity (K D); cited from earlier work
# Src SH3 = target: T6, Src SH3 (Homo sapiens, UniProt P12931); test: Fluorescence anisotropy binding, Src SH3; settings: 30 nM fluorescent peptide, running buffer + 0.1 mg/mL BSA + 0.5 mM Thesit, average of triplicate experiments, >1,000 = no binding
# T6 construct: His6-SUMO (N, cleaved yes); made in house; host or cells: Escherichia coli BL21 DE3
# Procedure: (§7) Fluorescence anisotropy assays were performed using a BioTek Synergy H1 plate reader, as previously described [([Tahti et al., 2023]; [Gao et al., 2020]; [Wofford et al., 2021]; [Valgardson et al., 2019])]. Solution conditions included running buffer plus 0.1 mg/mL bovine serine albumin (BSA) and 0.5 mM Thesit, with 30 nM fluorescent peptide. Determined K D values were the average calculated from triplicate experiments ([Cushing et al., 2008]). K d values were determined as previously, and as the midpoint between the anisotropy resulting from the free reporter peptide and SH3-peptide complex [([Cushing et al., 2008]; [Vouilleme et al., 2010]; [Amacher et al., 2013]; [Amacher et al., 2014])].
# W122C Src SH3 = target: T7, W122C Src SH3 (Homo sapiens, UniProt P12931, W122C); test: Fluorescence anisotropy binding, W122C Src SH3; settings: 30 nM fluorescent peptide, running buffer + 0.1 mg/mL BSA + 0.5 mM Thesit, average of triplicate experiments
# T7 construct: His6-SUMO (N, cleaved yes); made in house; host or cells: Escherichia coli BL21 DE3
# Procedure: as §7
# Abl SH3 [2] = target: T4, Abl SH3; design: method as in Pisabarro and Serrano, 1996; Pisabarro et al., 1998; settings: Abl SH3, previously published; ref Pisabarro and Serrano, 1996; Pisabarro et al., 1998; read-out: affinity (K D); cited from earlier work
# T4 sequence (P00519 61-121 limits assumed): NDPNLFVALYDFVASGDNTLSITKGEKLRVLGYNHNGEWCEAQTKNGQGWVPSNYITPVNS
# T3 sequence (P00519 61-121 C100W limits assumed): as the sequence (P00519 61-121 limits assumed) above, with C40W counted along it
Molecule,Kd (SrcAbl SH3) [µM],Kd (AblSrc SH3) [µM],Kd (C100W Abl SH3) [µM],Kd (Abl SH3 [1]) [µM],Kd (W122C SrcAbl SH3) [µM],Kd (Fyn SH3),Kd (Src SH3) [µM],Kd (W122C Src SH3) [µM],Kd (Abl SH3 [2]) [µM]
CC(C)C[C@H](NC(=O)CCCCCNC(=S)Nc1ccc2c(c1)C(=O)OC21c2ccc(O)cc2Oc2cc(O)ccc21)C(=O)N[C@@H](C)C(=O)N[C@@H](CO)C(=O)N[C@@H](CCCNC(=N)N)C(=O)N1CCC[C@H]1C(=O)N[C@@H](CC(C)C)C(=O)N1CCC[C@H]1C(=O)N[C@@H](CC(C)C)C(=O)N[C@@H](CC(C)C)C(=O)N1CCC[C@H]1C(=O)O [F*-PLLP],140 ± 20,> 1000,> 1000,> 1000,> 1000,,,,
C[C@H](N)C(=O)N1CCC[C@H]1C(=O)N[C@H](C(=O)N[C@@H](Cc1ccc(O)cc1)C(=O)N[C@@H](CO)C(=O)N1CCC[C@H]1C(=O)N1CCC[C@H]1C(=O)N1CCC[C@H]1C(=O)N1CCC[C@H]1C(=O)N1CCC[C@H]1C(=O)O)[C@@H](C)O [p40] (H-APTYSPPPPP-OH; N-terminus and C-terminus assumed),,,,,,472 µM and 470 µM,> 1000,,
C[C@H](NC(=O)CCCCCNC(=S)Nc1ccc2c(c1)C(=O)OC21c2ccc(O)cc2Oc2cc(O)ccc21)C(=O)N1CCC[C@H]1C(=O)N[C@H](C(=O)N[C@@H](Cc1ccc(O)cc1)C(=O)N[C@@H](CO)C(=O)N1CCC[C@H]1C(=O)N1CCC[C@H]1C(=O)N1CCC[C@H]1C(=O)N1CCC[C@H]1C(=O)N1CCC[C@H]1C(=O)O)[C@@H](C)O [F*-p40] ({FITC-Ahx}-APTYSPPPPP-OH),130 ± 40,210 ± 30,55 ± 20,3.1 ± 0.4,450 ± 190,,> 1000,> 1000,
"RAPTMPPPLPP [initial ligand, derived from the 3BP1 protein]",,,,,,30 µM,,,30

# — PMC11653366, “The conformation of the nSrc specificity-determining loop in the Src SH3 domain is modulated by a WX conserved sequence motif found in SH3 domains” (Frontiers in Molecular Biosciences, 2024)
